US10189795B2, “Aryl amine substituted quinoxaline used as anticancer drugs” (priority 2014, dated 2019)

System: Hep3B
Assay: MTT cell viability, Hep3B
Format: cell-based
Settings: Homo sapiens, 48 h
Procedure: The Sk-Hep1, PLC/PRF/5 (PLC) and Hep3B cell lines were obtained from American Type Culture Collection (ATCC; Manassas, Va., USA). The Huh-7 HCC cell line was obtained from the Health Science Research Resources Bank (HSRRB; Osaka, Japan; JCRB0403). Cells were maintained in DMEM supplemented with 10% FBS in a 37° C. humidified incubator in an atmosphere of 5% CO^2 in air. Other cell lines, including non-small cell lung cancer cells e.g. H358, H460 and A549 and human squamous cell carcinoma cells e.g. NCI-1703, H2170, H520, SW900 and NCI—H226 all obtained from American Type Culture Collection (Manassas, Va.) were also provided for the assays describes below.
The present invention compared the antitumor activities of an erlotinib derivative of the present invention, TD-52, and erlotinib on HCC cells. The present invention used MTT assay to evaluate cell viability after exposure to TD-52 or erlotinib for 48 h. […] To further evaluate the cell apoptosis induced by the treatments, all four cell lines were treated with TD-52 and erlotinib at the indicated concentration for 24 h and the percentages of sub-G1 cells were determined by flow cytometry (FIG. 1B).

C#Cc1cccc(Nc2nc3ccccc3nc2Nc2cccc(C#C)c2)c1 [TD52, N^2,N^3-bis(3-ethynylphenyl)quinoxaline-2,3-diamine]
IC50: 900 nM
